# Where a name gives a salt, the structure may show the parent alone.
# Legend:
# [1] = biological target: phencyclidine (PCP) receptors; assay: Inhibition of [^3 H]TCP receptor binding (RBS1)
# Method: The ability of the compounds of the instant invention to interact with phencyclidine (PCP) receptors which represents a noncompetitive NMDA antagonist binding site, is shown in Table 1. Tritiated 1[1-(2-thienyl)cyclohexyl]piperidine (TCP) binding, designated RBS1, was carried out essentially as described in J. Pharmacol. Exp. Ther., 238, 739-749 (1986).
# [2] = tested on: cultured rat cortical neurons; assay: Inhibition of glutamate stimulated [^45 Ca] influx (GCI) into cultured rat cortical neurons; assay type: cell-based; conditions: Cortical neurone, read-out: CGCI IC50
# Excerpt: (§1) Since the influx of calcium is thought to be central to the damage resulting from ischemia, the ability of the compounds of the instant invention to inhibit the hypoxia and glutamate-stimulated influx of calcium into cultured rat cortical neurons (an assay representative of cerebrovascular disorders resulting from stroke or brain injury) is shown in Table 2 and Table 3, respectively. The methodology for determining the ability of the compounds of the instant invention to inhibit the glutamate-stimulated calcium influx (GCI) into cultured rat cortical neurons is to be found in: A. W. Probert and F. W. Marcoux, Soc. Neurosci. Abstr. 13, Part II, 754 (1987). Using a similar culture system, the ability of the compounds of the instant invention to inhibit the hypoxia-stimulated influx of calcium (HCI) was determined by incubating cultured cells in an atmosphere of nitrogen (95%) and CO2 (5%) at 37° C. for a period of four hours. Calcium influx was determined by subtraction of the stimulated influx in the presence of tetrodotoxin (3 μM) and magnesium (10 mM) from that found in the absence (control) and in the presence of the test substance.
# [3] = tested on: cultured rat cortical neurons; assay: Inhibition of hypoxia stimulated [^45 Ca] influx (HCI) into cultured rat cortical neurons; assay type: cell-based; conditions: Cortical neurone, 4 h, hypoxia stimulated [^45 Ca] influx (CHCI), Table 3, nitrogen (95%) and CO2 (5%), 37° C., four hours, read-out: CGCI IC50
# Excerpt: as §1
compound,measurement,setting,value
"N[C@]12CCCC[C@H]1CCc1ccccc12 (relative stereo) [Example 2, Cis-1,3,4,9-10,10a-hexahydro-4a(2H)-phenanthrenamine monohydrochloride]",IC50,[1],20 nM
same,IC50,[2],100 nM
"CN[C@]12CCCC[C@H]1CCc1ccccc12 (relative stereo) [Example 4, Cis-1,3,4,9,10,10a-hexahydro-N-methyl-4a(2H)-phenanthrenamine monohydrochloride]",IC50,[1],15 nM
same,IC50,[3],180 nM
same,IC50,[2],410 nM
"C=CCN[C@]12CCCC[C@H]1CCc1ccccc12 (relative stereo) [Example 5, N-Allyl-cis-1,3,4,9,10,10a-hexahydro-4a(2H)-phenanthrenamine monohydrochloride]",IC50,[1],100 nM
same,IC50,[3],660 nM
same,IC50,[2],902 nM
CNC12CCCCC1Cc1ccccc12 (stereo not drawn) [* (X = CH2)],IC50,[1],16 nM
"CNC12CCCCC1Sc1ccccc12 (stereo not drawn) [* (X = S), reference compound]",IC50,[3],180 nM
same,IC50,[2],210 nM
"c1csc(C2(N3CCCCC3)CCCCC2)c1 [TCP, 1[1-(2-thienyl)cyclohexyl]piperidine]",IC50,[1],9 nM

# Source: patent US5276053A, “Polycyclic amines useful as cerebrovascular agents” (Warner-Lambert Company, priority 1992, dated 1994)
